# Patent publication US8785459B2, “Quinazoline compounds as kinase inhibitors” (Development Center for Biotechnology, priority 2011, dated 2014)
# Read-outs that look alike come from different tables or passages of the source.
# Experiments:
# Format in all cases: biochemical
# B-Raf = B-Raf (Homo sapiens (Human), UniProt P15056); test: Raf kinase assay (B-Raf), [33P] incorporation into MEK1(K97R); details: for inhibition at 1 µM: read-out: B-Raf inhibition at 1.0 μM
# Method: (§1) A. Raf Kinase Assays (B-Raf, B-raf (V600E), and C-Raf)
# (§2) Inhibition of kinase activity by test compound disclosed herein was estimated by quantifying the amount of [^33P] incorporation of substrate in the presence of test compound. Standard assay conditions were 2 ng of recombinant C-Raf or 5 ng of recombinant B-Raf or 5 ng of recombinant B-Raf (V600E) kinase (Upstate Biotechnology) with 500 ng MEK1(K97R) in assay buffer {8 μM ATP, 0.5 μCi [^33P]ATP (specific activity 3000 Ci/mmol, PerkinElmer), 50 mM Tris/HCl (pH7.5), and 1 mM EGTA, 1 mM Na3VO4, 1% 2-mercaptoethanol, 0.1% Brij 35, and 0.2 mg/ml BSA} at a final volume of 25 μL. Reactions were incubated at 30° C. for 30 min and stopped by adding 3% phosphoric acid, harvested onto a 96-well GF/B UniFilter (PerkinElmer) using a unifilter harvester (PerkinElmer), and counted with a TopCount microplate scintillation counter (PerkinElmer). The IC50 values of inhibitors were determined after carrying out assays at 3-fold serially diluted concentrations of each compound in duplication. The results were analyzed using linear regression software (GraphPad Prism 4; GraphPad Software Inc.). Inhibition of B-Raf, B-raf (V600E), and C-Raf kinases by various compounds listed in Table 1 are summarized and shown in Table 3 below. IC50 value is defined as the concentration of the test compound which achieves a half-maximal inhibition of the kinase activity.
# B-Raf (V600E) = B-Raf (V600E) (Homo sapiens (Human), UniProt P15056, V600E); test: Raf kinase assay (B-Raf (V600E)), [33P] incorporation into MEK1(K97R)
# Method: as §1, §2
# C-Raf = C-Raf (Homo sapiens (Human), UniProt P04049); test: Raf kinase assay (C-Raf), [33P] incorporation into MEK1(K97R)
# Method: as §1, §2
# C-Raf, sequence (P04049 whole entry): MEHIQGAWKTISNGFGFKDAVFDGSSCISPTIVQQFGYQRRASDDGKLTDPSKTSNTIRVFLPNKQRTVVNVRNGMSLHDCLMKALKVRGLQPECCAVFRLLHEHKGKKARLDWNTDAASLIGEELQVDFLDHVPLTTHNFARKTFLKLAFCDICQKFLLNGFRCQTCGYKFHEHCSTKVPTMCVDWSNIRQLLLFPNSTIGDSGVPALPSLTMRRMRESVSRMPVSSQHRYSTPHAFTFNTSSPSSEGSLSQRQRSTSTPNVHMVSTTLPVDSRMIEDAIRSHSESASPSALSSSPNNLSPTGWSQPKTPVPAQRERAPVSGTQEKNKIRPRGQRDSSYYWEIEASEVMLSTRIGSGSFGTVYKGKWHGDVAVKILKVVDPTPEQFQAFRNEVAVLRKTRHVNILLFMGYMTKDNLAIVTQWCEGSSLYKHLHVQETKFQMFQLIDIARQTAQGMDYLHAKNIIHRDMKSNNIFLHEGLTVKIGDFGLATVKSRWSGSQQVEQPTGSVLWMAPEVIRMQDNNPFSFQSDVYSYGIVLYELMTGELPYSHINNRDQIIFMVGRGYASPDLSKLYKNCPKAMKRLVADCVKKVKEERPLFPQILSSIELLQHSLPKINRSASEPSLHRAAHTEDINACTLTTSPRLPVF
# B-Raf, sequence (P15056 whole entry): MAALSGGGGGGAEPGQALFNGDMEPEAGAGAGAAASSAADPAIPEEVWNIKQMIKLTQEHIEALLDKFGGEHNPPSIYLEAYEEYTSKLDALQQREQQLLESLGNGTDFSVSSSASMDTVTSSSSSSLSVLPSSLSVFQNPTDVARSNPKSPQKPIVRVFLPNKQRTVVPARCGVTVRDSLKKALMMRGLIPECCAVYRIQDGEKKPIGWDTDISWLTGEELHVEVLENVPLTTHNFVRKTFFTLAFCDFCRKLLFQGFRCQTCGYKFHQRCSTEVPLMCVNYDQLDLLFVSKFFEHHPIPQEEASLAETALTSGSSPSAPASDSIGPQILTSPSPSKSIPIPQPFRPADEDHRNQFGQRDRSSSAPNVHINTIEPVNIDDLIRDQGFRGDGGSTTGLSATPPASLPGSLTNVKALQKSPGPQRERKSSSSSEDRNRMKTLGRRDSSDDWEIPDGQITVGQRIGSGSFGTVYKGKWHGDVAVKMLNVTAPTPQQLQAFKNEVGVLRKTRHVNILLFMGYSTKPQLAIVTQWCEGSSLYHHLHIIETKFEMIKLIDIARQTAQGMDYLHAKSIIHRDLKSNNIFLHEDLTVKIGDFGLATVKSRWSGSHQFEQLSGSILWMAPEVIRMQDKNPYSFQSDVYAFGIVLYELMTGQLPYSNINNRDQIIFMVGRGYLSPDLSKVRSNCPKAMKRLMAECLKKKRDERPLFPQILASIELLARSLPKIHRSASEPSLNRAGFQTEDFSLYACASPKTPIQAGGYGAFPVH
# B-Raf (V600E), sequence (P15056 whole entry V600E): as the sequence (P15056 whole entry) above, with V600E counted along it
inhibition at 1 µM (B-Raf; 1.0 μM compound) [%],SMILES,further results
40.4,"COc1cc(-c2ccc3ncnc(Nc4cccc(NS(=O)(=O)C(F)(F)F)c4)c3c2)ccc1O [Compound 65, 1,1,1-trifluoro-N-(3-(6-(4-hydroxy-3-methoxyphenyl)quinazolin-4-ylamino)phenyl)methanesulfonamide]",–
76.6,"CCOc1ccc(-c2ccc3ncnc(Nc4cccc5[nH]ncc45)c3c2)cc1 [Compound 93, 6-(4-ethoxyphenyl)-N-(1H-indazol-4-yl)quinazolin-4-amine]",IC50 (B-Raf (V600E)): 355 nM; IC50 (B-Raf): 347 nM; IC50 (C-Raf): 1560 nM
59.3,"COc1cc(-c2ccc3ncnc(Nc4ccc5[nH]nnc5c4)c3c2)ccc1O [Compound 66, 4-(4-(1H-benzo[d][1,2,3]triazol-5-ylamino)quinazolin-6-yl)-2-methoxyphenol]",IC50 (B-Raf (V600E)): 933 nM; IC50 (B-Raf): 1010 nM; IC50 (C-Raf): 973 nM
80.3,"COc1cccc(-c2ccc3nccc(Nc4cccc5[nH]ncc45)c3c2)c1 [Compound 123, N-(1H-indazol-4-yl)-6-(3-methoxyphenyl)quinolin-4-amine]",IC50 (B-Raf (V600E)): 263 nM; IC50 (B-Raf): 231 nM; IC50 (C-Raf): 688 nM
-6.5,"O=S(=O)(Nc1ccc(-c2ccc3ncnc(Nc4ccccc4)c3c2)cc1)c1ccc(F)cc1 [Compound 70, 4-fluoro-N-(4-(4-(phenylamino)quinazolin-6-yl)phenyl)benzenesulfonamide]",–
-5.4,"C#Cc1cccc(Nc2ncnc3ccc(-c4ccc(OC)cc4)cc23)c1 [Compound 151, N-(3-ethynylphenyl)-6-(4-methoxyphenyl)quinazolin-4-amine]",–
7.5,"COc1cc(-c2ccc3nccc(Nc4ccc(F)c(NS(C)(=O)=O)c4)c3c2)ccc1O [Compound 145, N-(2-fluoro-5-(6-(4-hydroxy-3-methoxyphenyl)quinolin-4-ylamino)phenyl)methanesulfonamide]",–
24.3,"COc1cc(-c2ccc3ncnc(Nc4ccc(Cl)c(NS(C)(=O)=O)c4)c3c2)ccc1O [Compound 140, N-(2-chloro-5-(6-(4-hydroxy-3-methoxyphenyl)quinazolin-4-ylamino)phenyl)methanesulfonamide]",–
22.4,"c1ccc(Nc2ncnc3ccc(-c4ccccc4)cc23)cc1 [Compound 132, N,6-diphenylquinazolin-4-amine]",–
36.3,"COc1cc(-c2ccc3ncnc(Nc4cccc5[nH]ccc45)c3c2)ccc1O [Compound 83, 4-(4-(1H-indol-4-ylamino)quinazolin-6-yl)-2-methoxyphenol]",–
44.1,"COc1cc(-c2ccc3ncnc(Nc4ccc(F)c(NS(C)(=O)=O)c4)c3c2)ccc1O [Compound 130, N-(2-fluoro-5-(6-(4-hydroxy-3-methoxyphenyl)quinazolin-4-ylamino)phenyl)methanesulfonamide]",–
23.3,"Fc1ccc(Nc2ncnc3ccc(-c4ccc5[nH]ncc5c4)cc23)cc1Cl [Compound 142, N-(3-chloro-4-fluorophenyl)-6-(1H-indazol-5-yl)quinazolin-4-amine]",–
4.6,"COc1cc(-c2ccc3nccc(Nc4ccc(Cl)c(NS(C)(=O)=O)c4)c3c2)ccc1O [Compound 141, N-(2-chloro-5-(6-(4-hydroxy-3-methoxyphenyl)quinolin-4-ylamino)phenyl)methanesulfonamide]",–
38.1,"COc1cc(-c2ccc3ncnc(Nc4cc(O)ccc4OC)c3c2)ccc1O [Compound 55, 4-(4-(5-hydroxy-2-methoxyphenylamino)quinazolin-6-yl)-2-methoxyphenol]",–
37.2,"COc1cc(-c2ccc3ncnc(Nc4cc(NS(C)(=O)=O)c(F)cc4F)c3c2)ccc1O [Compound 150, N-(2,4-difluoro-5-(6-(4-hydroxy-3-methoxyphenyl)quinazolin-4-ylamino)phenyl)methanesulfonamide]",–
24,"COc1cc(-c2ccc3ncc(C#N)c(Nc4cccc5[nH]ncc45)c3c2)ccc1O [Compound 135, 4-(1H-indazol-4-ylamino)-6-(4-hydroxy-3-methoxyphenyl)quinoline-3-carbonitrile]",–
25.8,"COc1cc(-c2ccc3ncnc(Nc4cc(NS(C)(=O)=O)ccc4Cl)c3c2)ccc1O [Compound 139, N-(4-chloro-3-(6-(4-hydroxy-3-methoxyphenyl)quinazolin-4-ylamino)phenyl)methanesulfonamide]",–
8.2,"COc1cc(-c2ccc3ncnc(Nc4c(C)ccc5[nH]ncc45)c3c2)ccc1O [Compound 155, 2-methoxy-4-(4-(5-methyl-1H-indazol-4-ylamino)quinazolin-6-yl)phenol]",–
15.6,"COc1cc(-c2ccc3ncnc(Nc4ccccc4C(=O)O)c3c2)ccc1O [Compound 50, 2-(6-(4-hydroxy-3-methoxyphenyl)quinazolin-4-ylamino)benzoic acid]",–
4.8,"COc1cc(-c2ccc3ncnc(Nc4ccc(C(=O)O)cc4)c3c2)ccc1O [Compound 57, 4-(6-(4-hydroxy-3-methoxyphenyl)quinazolin-4-ylamino)benzoic acid]",–

# The remaining lines, values behind:
SMILES,inhibition at 1 µM (B-Raf; 1.0 μM compound) [%],further results
"COc1ccc(-c2ccc3ncnc(Nc4ccccc4)c3c2)cc1 [Compound 10, 6-(4-methoxyphenyl)-N-phenylquinazolin-4-amine]",15.8,–
"CCNC(=O)Oc1ccc(-c2ccc3ncnc(Nc4ccccc4)c3c2)cc1OC [Compound 9, 2-methoxy-4-(4-(phenylamino)quinazolin-6-yl)phenyl ethylcarbamate]",–,inhibition at 1 µM (B-Raf): 13.8%
"COc1cccc(Nc2ncnc3ccc(-c4ccc(O)c(OC)c4)cc23)c1 [Compound 22, 2-methoxy-4-(4-(3-methoxyphenylamino)quinazolin-6-yl)phenol]",63.3,IC50 (B-Raf (V600E)): 411 nM; IC50 (B-Raf): 719 nM; IC50 (C-Raf): 1390 nM
"COc1cc(-c2ccc3ncnc(Nc4cccc(C(=O)O)c4)c3c2)ccc1O [Compound 32, 3-(6-(4-hydroxy-3-methoxyphenyl)quinazolin-4-ylamino)benzoic acid]",34.7,–
"COc1ccc(C(=O)O)c(Nc2ncnc3ccc(-c4ccc(O)c(OC)c4)cc23)c1 [Compound 48, 2-(6-(4-hydroxy-3-methoxyphenyl)quinazolin-4-ylamino)-4-methoxybenzoic acid]",30.6,–
"COc1cc(-c2ccc3ncnc(Nc4ccc(OC)c(OC)c4)c3c2)ccc1O [Compound 13, 4-(4-(3,4-dimethoxyphenylamino)quinazolin-6-yl)-2-methoxyphenol]",7.7,–
"COc1ccc(Nc2ncnc3cc(OC)c(-c4ccc(O)c(OC)c4)cc23)cc1O [Compound 42, 4-(4-(3-hydroxy-4-methoxyphenylamino)-7-methoxyquinazolin-6-yl)-2-methoxyphenol]",20.4,–
"O=S(=O)(Nc1ccc(-c2ccc3ncnc(Nc4ccccc4)c3c2)cc1)c1ccccc1 [Compound 28, N-(4-(4-(phenylamino)quinazolin-6-yl)phenyl)benzenesulfonamide]",30.5,–
"COc1cc(-c2ccc3ncnc(Nc4c(F)ccc5[nH]ncc45)c3c2)ccc1O [Compound 149, 4-(4-(5-fluoro-1H-indazol-4-ylamino)quinazolin-6-yl)-2-methoxyphenol]",–,B-Raf inhibition at 1.0 μM (B-Raf; 1.0 μM compound): 15.2%
"COc1cc(-c2ccc3ncnc(Nc4ccc(C(N)=O)cc4)c3c2)ccc1O [Compound 47, 4-(6-(4-hydroxy-3-methoxyphenyl)quinazolin-4-ylamino)benzamide]",37.8,–
"CCS(=O)(=O)Nc1ccc(-c2ccc3ncnc(Nc4cccc(NS(=O)(=O)CC)c4)c3c2)cc1 [Compound 26, N-(3-(6-(4-(ethylsulfonamido)phenyl)quinazolin-4-ylamino)phenyl)ethanesulfonamide]",45.7,–
"COc1cc(-c2cc3c(Nc4ccccc4)ncnc3cc2OC)ccc1O [Compound 30, 2-methoxy-4-(7-methoxy-4-(phenylamino)quinazolin-6-yl)phenol]",10,–
"CCS(=O)(=O)Nc1ccc(-c2ccc3ncnc(Nc4ccccc4)c3c2)cc1 [Compound 24, N-(4-(4-(phenylamino)quinazolin-6-yl)phenyl)ethanesulfonamide]",48.6,IC50 (B-Raf (V600E)): 1810 nM; IC50 (B-Raf): 1700 nM
"COc1cc(-c2ccc3ncnc(Nc4ccccc4)c3c2)ccc1OC(=O)Nc1ccccc1 [Compound 7, 2-methoxy-4-(4-(phenylamino)quinazolin-6-yl)phenyl phenylcarbamate]",–,inhibition at 1 µM (B-Raf): 23.5%
"NC(=O)Nc1ccc(-c2ccc3ncnc(Nc4ccccc4)c3c2)cc1 [Compound 11, 1-(4-(4-(phenylamino)quinazolin-6-yl)phenyl)urea]",19.9,–
"COc1cc(-c2ccc3ncnc(Nc4ccc5cc[nH]c5c4)c3c2)ccc1O [Compound 40, 4-(4-(1H-indol-6-ylamino)quinazolin-6-yl)-2-methoxyphenol]",32.2,–
"CCNC(=O)Nc1ccc(-c2ccc3ncnc(Nc4ccccc4)c3c2)cc1 [Compound 12, 1-ethyl-3-(4-(4-(phenylamino)quinazolin-6-yl)phenyl)urea]",18.2,–
